# Measurements reported in patent publication US20070172844A1, “Individualized cancer treatments” (University of South Florida, priority 2005, published 2007).
# Tests used:
# [1] = system: adriamycin treated patients; settings: Evans et al data set, n=122; cited from earlier work
# [2] = system: ovarian cancer cell lines; assay: Cell proliferation assays (MTS, percentage reduction in growth at 120 hr), Example 1; type: cell-based, human; settings: inhibition of proliferation vs probability of pathway activation
# Procedure: Cell lines and RNA extraction-The ovarian cancer cell lines, OV90, TO[…], and TO[…] were grown as recommended by the supplier (ATCC, Rockville, Md.). FUOV1, a human ovarian carcinoma, was grown according to the supplier (DSMZ, Braunschweig, Germany). Eight additional cell lines (C13, OV2008, A2780CP, A2780S, IGROV1, T8, OVCAR5 and IMCC3) were provided by Dr. Patricia Kruk, Department of Pathology, College of Medicine (University of South Florida, Tampa, Fla.). […] All tissue culture reagents were obtained from Sigma Aldrich (St. Louis, Mo.). Total RNA was extracted from each cell line and assayed on the Human 133 plus 2.0 arrays. Cell proliferation assays-Assays measuring cell proliferation and the effects of targeted agents have been described previously^36. Briefly, growth curves for the ovarian cancer cell lines were carried out by plating 300-4000 cells per well of a 96-well plate. The growth of cells at 12 hr time points (from t=12 hrs) was determined using the CellTiter 96 Aqueous One Solution Cell Proliferation Assay Kit by Promega, which is a colorimetric method for determining the number of growing cells. […] The degree of proliferation inhibition was plotted as a function of probability of Src pathway activation or E2F3 pathway activation.
# [3] = system: ovarian cancer cell lines; assay: Cell proliferation assays (percent reduction in growth at 96 hrs), 12 ovarian cancer cell lines, Examples 2 and 3; type: cell-based, human
# Procedure: Cell Culture—All liquid media as well as the Thiazolyl Blue Tetrazolium Bromide were purchased from Sigma Aldrich (St. Louis, Mo.). The Src inhibitor SU6656 and the Topotecan hydrochloride were purchased from Calbiochem (San Diego, Calif.). The ovarian cancer cell lines, OV90, OVCA5, TOV21G, and TOV12D were grown as recommended by the supplier (ATCC, Rockville, Md.). FUOV1, a human ovarian carcinoma, was grown according to the supplier (DSMZ; Braunschweig, Germany). Seven additional cell lines (C13, OV2008, A2780CP, A2780S, IGROV1, T8, IMCC3) were provided by Dr. Patricia Kruk, College of Medicine (University of South Florida, Fla.). All of those seven cell lines were grown in RPMI 1640, supplemented with 10% Fetal Bovine Serum, 1% sodium pyruvate, and 1% non essential amino acids. All tissue culture reagents were obtained from Sigma (UK).
# Cell proliferation assays—Growth curves for cells were produces out by plating at 500-10,000 cells per well of a 96-well plate. The growth of cells at 12 hr time points (from t=12 hrs) was determined using the CellTiter 96 Aqueous One 23 Solution Cell Proliferation Assay Kit by Promega, which is a calorimetric method for determining the number of growing cells. […] Cumulatively, these experiments determined the concentration of cells to use for each cell line, as well as the dosing range of the inhibitors. […] Sensitivity to topotecan and a Src inhibitor (SU6656), both single alone and combined was determined by quantifying the percent reduction in growth (versus DMSO controls) at 96 hrs. […]
# In the analysis of the various oncogenic pathways, analysis of expression data was done as previously described in Bild A, et al., Nature 439:353-357, 2006 and West M, et al., Proc. Natl. Acad. Sci. USA 2001;98(20):11462-7). […] Each oncogenic signature summarizes its constituent genes as a single expression profile, and is derived as the first principal component of that set of genes (the factor corresponding to the largest singular value) as determined by a singular value decomposition. […]
# [4] = system: advanced ovarian cancer patients; assay: Clinical response to salvage chemotherapy (topotecan, paclitaxel, docetaxel); type: in vivo, human; settings: for Actual Overall response: Ovarian, single agent salvage therapy
# Text: Classification of topotecan response—Response to therapy was retrospectively evaluated from the medical record using standard criteria for patients with measurable disease, based upon WHO guidelines (Miller A B, et al., Cancer 1981;47:207-14). CA-125 was used to classify responses only in the absence of a measurable lesion; CA-125 response criteria were based on established guidelines (Miller A B, et al. Cancer 1981;47:207-14; Rustin G J, et al., Ann. Onco. 110:21-27, 1999). […] A complete response (CR) was defined as a complete disappearance of all measurable and assessable disease or, in the absence of measurable lesions, a normalization of the CA-125 level following topotecan therapy. A partial response (PR) was considered a 50% or greater reduction in the product obtained from measurement of each bi-dimensional lesion for at least 4 weeks or a drop in the CA-125 by at least 50% for at least 4 weeks. Progressive disease (PD) was defined as a 50% or greater increase in the product from any lesion documented within 8 weeks of initiation of therapy, the appearance of any new lesion within 8 weeks of initiation of therapy, or any increase in the CA-125 from baseline at initiation of therapy. Stable disease (SD) was defined as disease not meeting any of the above criteria.
# Tissues—We measured expression of 22,283 genes in 12 ovarian cancer cell lines and 48 advanced (FIGO stage III/IV) serous epithelial ovarian carcinomas using Affymetrix U133A GeneChips. All ovarian cancers were obtained at initial cytoreductive surgery from patients treated at H. Lee Moffitt Cancer Center & Research Institute or Duke University Medical Center. All patients received topotecan as salvage chemotherapy after initial platinum based therapy. All tissues were collected under the auspices of a respective institutional IRB approved protocol with written informed consent.
# Classification of topotecan response in tumors—Response to therapy was retrospectively evaluated from the medical record using standard criteria for patients with measurable disease, based upon WHO guidelines ((Miller A B, et al., Cancer 1981;47:207-14). CA-125 was used to classify responses only in the absence of a measurable lesion; CA-125 response criteria were based on established guidelines (Miller A B, et al. Cancer 1981;47:207-14; Rustin G J, et al., Ann. Onco. 110:21-27, 1999). A complete responder was defined as a complete disappearance of all measurable and assessable disease or, in the absence of measurable lesions, a normalization of the CA-125 level following topotecan therapy. Non-responders/patients with progressive disease (PD) were defined as a 50% o or greater increase in the primary lesion(s) documented within 8 weeks of initiation of therapy or the appearance of any new lesion within 8 weeks of initiation of therapy.
# Full details of the methods used for RNA extraction and development of gene expression signatures representing deregulation of oncogenic pathways in the tumor samples are recently described.^36 Response to therapy was evaluated using standard criteria for patients with measurable disease, based upon WHO guidelines.^28
# breast cancer patients = settings: Breast Tumor Data; published neoadjuvant data sets (MDACC TFAC n=51, complete pathologic response; single agent docetaxel n=24); cited from earlier work
# [5] = system: ovarian cancer cell lines; assay: Cell proliferation assay (MTT, 96 hrs), topotecan and SU6656 in 13 ovarian cell lines; type: cell-based, human; settings: 13 ovarian cancer cell lines
# Procedure: Cell proliferation assays. Growth curves for cells were produced by plating 500-10,000 cells per well in 96-well plates. The growth of cells at 12 hr time points (from t=12 hrs) was determined using the CellTiter 96 Aqueous One 23 Solution Cell Proliferation Assay Kit by Promega, which is a colorimetric method for determining the number of growing cells.^36 The growth curves plot the growth rate of cells vs. each concentration of drug tested against individual cell lines. Cumulatively, these experiments determined the concentration of cells to use for each cell line, as well as the dosing range of the inhibitors. The final dose-response curves in our experiments plot the percent of cell population responding to the chemotherapy vs. the concentration of the drug for each cell line. Sensitivity to docetaxel and a phosphatidylinositol 3-kinase (PI3 kinase) inhibitor (LY-294002)^36 in 17 lung cell lines, and topotecan and a Src inhibitor (SU6656) in 13 ovarian cell lines was determined by quantifying the percent reduction in growth (versus DMSO controls) at 96 hrs using a standard MTT colorimetric assay.^36 Concentrations used ranged from 1-10 nM for docetaxel, 300 nM-10 μM (SU6656), and 300 nM-[…] for LY-294002. All experiments were repeated at least three times.
compound,measurement,setting,value
"COc1cccc2c1C(=O)c1c(O)c3c(c(O)c1C2=O)C[C@@](O)(C(=O)CO)C[C@@H]3O[C@H]1C[C@H](N)[C@H](O)[C@H](C)O1 [Adriamycin, adriamycin]",Actual Overall response,[1],24/122 (19.6%)
CC[C@H](CO)Nc1nc(NCc2ccccc2)c2ncn(C(C)C)c2n1 [CYC202/R-Roscovitine],relationship between predicted pathway deregulation (Src or E2F3) and drug sensitivity,[2],clear and statistically significant relationship
same,relationship between predicted adriamycin resistance and sensitivity to cdk inhibitor,[3]; ovarian cancer cell lines,coincides with sensitivity to R-Roscovitine
"CC(=O)O[C@@]12CO[C@@H]1C[C@H](O)[C@@]1(C)C(=O)[C@H](O)C3=C(C)[C@@H](OC(=O)[C@H](O)[C@@H](NC(=O)OC(C)(C)C)c4ccccc4)C[C@@](O)([C@@H](OC(=O)c4ccccc4)[C@H]21)C3(C)C [Docetaxel, docetaxel]",Actual Overall response,[4],7/14 (50%)
same,Actual Overall response,breast cancer patients,13/24 (54.1%)
"CC(=O)O[C@H]1C(=O)[C@@]2(C)[C@H]([C@H](OC(=O)c3ccccc3)[C@]3(O)C[C@H](OC(=O)[C@H](O)[C@@H](NC(=O)c4ccccc4)c4ccccc4)C(C)=C1C3(C)C)[C@]1(OC(C)=O)CO[C@@H]1C[C@@H]2O [Paclitaxel, paclitaxel]",Actual Overall response,[4],20/35 (57.1%)
CN(C)S(=O)(=O)c1ccc2c(c1)/C(=C/c1cc3c([nH]1)CCCC3)C(=O)N2 [SU6656],relationship between predicted pathway deregulation (Src or E2F3) and drug sensitivity,[2],clear and statistically significant relationship
same,relationship between predicted src-pathway deregulation and response to src-inhibitor alone,[3]; 12 ovarian cancer cell lines,clear relationship
same,effect of Src inhibitor on sensitivity to topotecan,"[3]; growth inhibition, 12 ovarian cancer cell lines",increases ovarian cancer cell line sensitivity to topotecan
same,relationship between probability of topotecan resistance and sensitivity to Src pathway inhibitor,[5],significant linear relationship
"CC[C@@]1(O)C(=O)OCc2c1cc1n(c2=O)Cc2cc3c(CN(C)C)c(O)ccc3nc2-1 [Topotecan, topotecan]",Actual Overall response,[4],20/48 (41.6%)
same,patients classified as topotecan non-responders,"[4]; of 48 patients, non-responder = PD",18
same,patients classified as topotecan responders,"[4]; of 48 patients, responder = CR, PR or SD",30
N.N.[Cl][Pt][Cl] [cisplatin],relationship between predicted pathway deregulation (Src or E2F3) and drug sensitivity,[2],no evident relationship
